Source: US10988465B2, “CXCR4 inhibitors and uses thereof” (X4 Pharmaceuticals, Inc., priority 2016, dated 2021)
Where two headings read alike, the source gives them in different places.

Columns and labels:
[1] = Mouse brain uptake assay (MBUA), 3 mg/kg IV, 0-1 h, 3 time points; format: in vivo, male CD1 mice; conditions: for clearance / half-life: CD1, plasma, 3 time points; for half-life: read-out: t½ (converted)
Description: Example 38: Pharmacokinetics and Brain Penetration Experiment to Determine Brain and Plasma Concentrations of Compounds after IV Administration to Male CD1 Mice
The study design (9 animals) consisted of administrating the drug (IV: 3 mg/kg (5 mL/kg) via tail vein injection) and collecting samples at terminal bleeding for plasma and brain at 0.083, 0.5 and 1 h. The IV dosing solution was prepared in 50 mM citrate buffer (pH 4.0) at 0.6 mg/mL. The blood collection was performed as follows: the animal was restrained manually and approximately 150 μL blood/time point was collected into a dipotassium EDTA tube via retro orbital puncture under anesthesia with isoflurane. The blood sample was put on ice and centrifuged to obtain a plasma sample (2000 g, 5 min under 4° C.) within 15 minutes. The brain collection was performed as follows: a mid-line incision was made in the animal's scalp and the skin was retracted. Using small bone cutters and rongeurs, the skull overlying the brain was removed. The brain was removed using a spatula and the brain rinsed with cold saline. The brain was placed in screw-top tubes, and the tubes were stored at −70° C. until analysis.
An aliquot of 30 μL sample was added to 150 μL MeCN containing 50 ng/mL IS (Dexamethasone). The mixture was vortexed for 5 min and centrifuged at 14,000 rpm for 5 min. An aliquot of 5 μL supernatant was injected for LC-MS/MS analysis.
An aliquot of 30 μL brain homogenate (brain:PBS=1:3, w/v) sample was added to 150 μL IS in MeCN (Dexamethasone, 50 ng/mL). The mixture was vortexed for 5 min and centrifuged at 14,000 rpm for 5 min. An aliquot of 5 μL supernatant was injected for LC-MS/MS analysis.
The sample analysis was performed on LCMS/MS-003 (API4000, triple quadruple) under the following conditions: positive ion, ESI, MRM detection using dexamethasone as internal standard. HPLC conditions: mobile phase A: H2O (0.025% formic acid (FA) with 1 mM NH4OAc); mobile phase B: MeOH (0.025% FA with 1 mM NH4OAc) on Waters X-Bridge C18 (2.1×50 mm, 2.5 μm) column at 60° C.

[2] = in vitro; conditions: human, Caco-2, pH 7.4
Summary of the method: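 Caco-2 monolayers, checked by TEER with Lucifer yellow as marker, were dosed with 10 μM compound in HBSS pH 7.4 in A-to-B and B-to-A directions. Incubation was 90 min at 37° C, in duplicate. Samples were quantified by LC-MS/MS and Papp calculated.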

[3] = molecular target: T1, CXCR-4 transfected U87 cell line (U87.CXCR4) (Homo sapiens, UniProt P61073); assay: Intracellular CXCL-12-induced calcium mobilization assay (FLIPR); format: cell-based; conditions: U87.CXCR4 cells; CXCL-12 25-50 ng/mL; compound added 15 min before; read-out: IC50 CXCL-12 Ca^2+ flux U87.CXCR4+
T1 construct: expressed in transfected cells; host or cells: U87 (U87.CXCR4)
Summary of the method: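 U87 cells stably expressing human CXCR4, loaded with Fluo-2 AM (4 μM final) for 45 min at 37 °C in HBSS/20 mM HEPES/0.2% BSA, pH 7.4. Calcium flux triggered by CXCL-12 (25-50 ng/mL) was followed by FLIPR fluorescence over time at 37 °C.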

[4] = male, CD1, brain, mouse, 3 mg/kg IV, 0-1 h, read-out: AUClast (b)
[5] = male, CD1, plasma, mouse, 3 mg/kg IV, 0-1 h, read-out: AUClast (P)

T1 sequence (P61073 whole entry): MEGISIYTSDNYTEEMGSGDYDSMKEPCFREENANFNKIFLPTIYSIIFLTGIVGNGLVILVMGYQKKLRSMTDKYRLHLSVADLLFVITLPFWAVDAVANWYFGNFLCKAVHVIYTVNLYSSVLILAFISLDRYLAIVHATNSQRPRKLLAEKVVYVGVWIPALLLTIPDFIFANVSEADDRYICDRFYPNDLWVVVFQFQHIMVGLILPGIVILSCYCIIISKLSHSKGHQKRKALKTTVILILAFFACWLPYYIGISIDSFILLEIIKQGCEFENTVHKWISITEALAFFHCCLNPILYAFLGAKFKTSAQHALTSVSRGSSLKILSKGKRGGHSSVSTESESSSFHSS

Structure (SMILES)	Kp ([1]; male, CD1, mouse, brain/plasma, iv, 3 mg/kg)	clearance ([1]; male, mouse, 3 mg/kg IV, 0-1 h) [mL/min/kg]	half-life ([1]; male, mouse, 3 mg/kg IV, 0-1 h) [min]	AUC(0-t) [1, 4] [ng·h/mL]	AUC(0-t) [1, 5] [ng·h/mL]	Kp uu ([1]; male, CD1, unbound brain/unbound plasma, mouse, 3 mg/kg IV, 0-1 h, read-out: Kp, uu)	fraction unbound ([1]; mouse, fraction unbound to brain proteins, read-out: Fu (b) %)	fraction unbound ([1]; mouse, fraction unbound to plasma proteins, read-out: Fu (p) %)	Papp A→B at 90 min, 10 μM [2] [×10⁻⁶ cm/s]	Papp B→A at 90 min, 10 μM [2] [×10⁻⁶ cm/s]	efflux ratio at 90 min, 10 μM [2]	IC50 [3] [nM]
CN1CCN(c2cccc3nc([C@H]4CCC[C@@H](c5ncccc5Cl)N4)[nH]c23)CC1 (racemic) [I-122]	1.23	119	24.1	418	341	0.33	0.035	0.127	10 to 30	10 to 30	0.1 to 10	0.01 to 100
Cc1cccnc1[C@@H]1CCC[C@H](c2nc3cccc(N4CCN(C)CC4)c3[nH]2)N1C (racemic) [I-3, 2-((2R,6S)-1-methyl-6-(3-methylpyridin-2-yl)piperidin-2-yl)-7-(4-methylpiperazin-1-yl)-1H-benzo[d]imidazole]		115	18	180	268				0.1 to 10	10 to 30		0.01 to 100
